One assay addresses T1, F508del (Homo sapiens, UniProt P13569, DEL508-508).
T1 construct: expressed in transfected cells
In words: Protocol 2: FRET membrane potential optical assay (VIPR), identification of correction compounds. It counts as cell-based. The settings on record: F508del CFTR modulator activity; compounds of Table 1; read-out: EC30. The method, boiled down:
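Corrector readout: membrane-potential FRET (CC2-DMPE donor, DiSBAC2(3) acceptor) on VIPR II after Cl⁻-free gluconate bath with 10 μM forskolin and 20 μM genistein. Before this, F508del-expressing NIH3T3 cells were exposed to test compound for 16 h at 37 °C without serum; 27 °C incubation served as temperature-correction control.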
T1 sequence (P13569 with tags, fused parts or gaps DEL508-508): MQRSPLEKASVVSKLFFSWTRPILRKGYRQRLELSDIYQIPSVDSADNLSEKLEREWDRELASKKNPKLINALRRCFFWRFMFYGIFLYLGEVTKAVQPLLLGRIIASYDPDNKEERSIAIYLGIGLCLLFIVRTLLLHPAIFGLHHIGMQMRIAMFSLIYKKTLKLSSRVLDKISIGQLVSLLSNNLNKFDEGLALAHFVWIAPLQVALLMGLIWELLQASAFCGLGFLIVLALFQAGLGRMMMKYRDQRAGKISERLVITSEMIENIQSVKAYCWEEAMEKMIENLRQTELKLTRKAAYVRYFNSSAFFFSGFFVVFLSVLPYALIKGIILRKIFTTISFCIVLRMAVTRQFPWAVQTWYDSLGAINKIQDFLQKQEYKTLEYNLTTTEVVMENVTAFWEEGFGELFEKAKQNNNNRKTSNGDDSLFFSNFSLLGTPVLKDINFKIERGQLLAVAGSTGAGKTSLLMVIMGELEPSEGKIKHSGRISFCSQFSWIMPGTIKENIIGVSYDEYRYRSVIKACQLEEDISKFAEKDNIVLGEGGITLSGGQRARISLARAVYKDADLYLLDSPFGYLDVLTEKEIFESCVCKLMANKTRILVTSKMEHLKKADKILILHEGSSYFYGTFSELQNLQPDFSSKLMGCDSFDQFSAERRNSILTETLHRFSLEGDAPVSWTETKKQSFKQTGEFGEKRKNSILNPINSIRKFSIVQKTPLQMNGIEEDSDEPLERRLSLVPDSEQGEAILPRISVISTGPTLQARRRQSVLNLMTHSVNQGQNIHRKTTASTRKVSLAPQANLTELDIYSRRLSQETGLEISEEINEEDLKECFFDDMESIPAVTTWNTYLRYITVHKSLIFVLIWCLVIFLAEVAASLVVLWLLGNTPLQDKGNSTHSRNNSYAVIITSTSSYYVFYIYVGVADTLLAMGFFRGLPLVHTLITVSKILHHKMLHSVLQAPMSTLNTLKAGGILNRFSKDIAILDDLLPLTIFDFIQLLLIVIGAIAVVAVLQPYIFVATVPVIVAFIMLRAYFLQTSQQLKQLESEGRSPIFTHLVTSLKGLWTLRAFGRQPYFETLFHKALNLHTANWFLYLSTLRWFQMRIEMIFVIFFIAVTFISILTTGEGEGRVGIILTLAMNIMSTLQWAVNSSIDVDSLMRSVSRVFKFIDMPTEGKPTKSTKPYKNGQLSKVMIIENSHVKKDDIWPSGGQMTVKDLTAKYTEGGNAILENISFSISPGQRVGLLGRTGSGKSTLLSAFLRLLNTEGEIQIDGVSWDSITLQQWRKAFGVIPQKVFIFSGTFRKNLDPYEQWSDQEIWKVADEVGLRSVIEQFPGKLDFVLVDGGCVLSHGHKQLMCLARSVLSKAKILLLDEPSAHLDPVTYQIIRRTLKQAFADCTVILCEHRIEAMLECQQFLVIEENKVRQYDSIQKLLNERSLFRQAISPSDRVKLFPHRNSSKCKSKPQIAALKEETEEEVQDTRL
Consider `CC1CN(c2ncccc2C(=O)NS(=O)(=O)c2cccc(OCc3ccoc3)n2)C(C)(C)C1` (stereo not drawn) [Compound 2507, N—[[6-(3-furylmethoxy)-2-pyridyl]sulfonyl]-2-(2,2,4-trimethylpyrrolidin-1-yl)pyridine-3-carboxamide], for which the 30% effect concentration (EC30) is under 3000 nM. The same measure, in the same setting: the value for `CCOc1cccc(F)c1-c1ccc(C(=O)NS(=O)(=O)c2cccnc2N)c(N2C[C@@H](C)CC2(C)C)n1` [Compound 2103, N-[(2-amino-3-pyridyl)sulfonyl]-6-(2-ethoxy-6-fluoro-phenyl)-2-[(4S)-2,2,4-trimethylpyrrolidin-1-yl]pyridine-3-carboxamide] was under 3000 nM. Regarding `CC1CN(c2ncccc2C(=O)NS(=O)(=O)c2cccc(Nc3cccc4cnccc34)n2)C(C)(C)C1` (stereo not drawn) [Compound 2274, N—[[6-(5-isoquinolylamino)-2-pyridyl]sulfonyl]-2-(2,2,4-trimethylpyrrolidin-1-yl)pyridine-3-carboxamide], the EC30 was 3000 to 10000 nM. On the same count and under the same terms, the value for `C[C@@H]1CN(c2nc(-c3cccc(OC(F)(F)F)c3)ccc2C(=O)NS(=O)(=O)c2cccc(N)n2)C(C)(C)C1` [Compound 2366, N-[(6-amino-2-pyridyl)sulfonyl]-6-[3-(trifluoromethoxy)phenyl]-2-[(4S)-2,2,4-trimethylpyrrolidin-1-yl]pyridine-3-carboxamide] was under 3000 nM.

As for `CC1CN(c2ncc(-c3ccc(C(C)(C)C#N)cc3)cc2C(=O)NS(=O)(=O)c2cccc(N)n2)C(C)(C)C1` (stereo not drawn) [Compound 2521, N-[(6-amino-2-pyridyl)sulfonyl]-5-[4-(1-cyano-1-methyl-ethyl)phenyl]-2-(2,2,4-trimethylpyrrolidin-1-yl)pyridine-3-carboxamide], the concentration for an effect of 30% (EC30) was under 3000 nM. Same read-out and setting: the value for `CCOC(=O)N1CCC(Nc2cccc(S(=O)(=O)NC(=O)c3cccnc3N3CC(C)CC3(C)C)n2)CC1` (stereo not drawn) [Compound 2253, ethyl 4-[[6-[[2-(2,2,4-trimethylpyrrolidin-1-yl)pyridine-3-carbonyl]sulfamoyl]-2-pyridyl]amino]piperidine-1-carboxylate] was 3000 to 10000 nM. On the same count and under the same terms, the value for `Cc1ccc(-c2ccc(C(=O)NS(=O)(=O)c3ccc[nH]c3=O)c(N3C[C@@H](C)CC3(C)C)n2)cc1C` [Compound 2154, 6-(3,4-dimethylphenyl)-N-[(2-oxo-1H-pyridin-3-yl)sulfonyl]-2-[(4S)-2,2,4-trimethylpyrrolidin-1-yl]pyridine-3-carboxamide] was under 3000 nM. Turning to `CC1CN(c2ncccc2C(=O)NS(=O)(=O)c2cccc(OCc3cccc4ccccc34)n2)C(C)(C)C1` (stereo not drawn) [Compound 2270, N—[[6-(1-naphthylmethoxy)-2-pyridyl]sulfonyl]-2-(2,2,4-trimethylpyrrolidin-1-yl)pyridine-3-carboxamide], the EC30 was under 3000 nM. The same measure, in the same setting: the value for `COc1ccc(S(=O)(=O)NC(=O)c2ccc(-c3ccc(OC(C)C)nc3)nc2N2C[C@@H](C)CC2(C)C)c(N)n1` [Compound 2688] was under 3000 nM.

For the compound `COc1ccc2c(c1)CCN(c1cccc(S(=O)(=O)NC(=O)c3cccnc3N3CC(C)CC3(C)C)n1)C2` (stereo not drawn) [Compound 2260, N—[[6-(6-methoxy-3,4-dihydro-1H-isoquinolin-2-yl)-2-pyridyl]sulfonyl]-2-(2,2,4-trimethylpyrrolidin-1-yl)pyridine-3-carboxamide], the concentration for an effect of 30% (EC30) was under 3000 nM. For `CC(C)Cc1ccc(C(=O)NS(=O)(=O)c2ccccc2)c(N2C[C@@H](C)CC2(C)C)n1` [Compound 2246, N-(benzenesulfonyl)-6-isobutyl-2-[(4S)-2,2,4-trimethylpyrrolidin-1-yl]pyridine-3-carboxamide], the EC30 is under 3000 nM. Still for that read-out and setting: the value for `COc1cccc(OC)c1Oc1cccc(S(=O)(=O)NC(=O)c2cccnc2N2CC(C)CC2(C)C)n1` (stereo not drawn) [Compound 2309, N—[[6-(2,6-dimethoxyphenoxy)-2-pyridyl]sulfonyl]-2-(2,2,4-trimethylpyrrolidin-1-yl)pyridine-3-carboxamide] was under 3000 nM. Same read-out and setting: the value for `CC1CN(c2ncccc2C(=O)NS(=O)(=O)c2cccc(N3CCC(C(F)(F)F)CC3)n2)C(C)(C)C1` (stereo not drawn) [Compound 2641, N—[[6-[4-(trifluoromethyl)-1-piperidyl]-2-pyridyl]sulfonyl]-2-(2,2,4-trimethylpyrrolidin-1-yl)pyridine-3-carboxamide] was under 3000 nM. For `CC1CN(c2ncccc2C(=O)NS(=O)(=O)c2cccc(NCCCCc3ccccc3)n2)C(C)(C)C1` (stereo not drawn) [Compound 2119, N—[[6-(4-phenylbutylamino)-2-pyridyl]sulfonyl]-2-(2,2,4-trimethylpyrrolidin-1-yl)pyridine-3-carboxamide], the EC30 was under 3000 nM. For `CC1CN(c2ncccc2C(=O)NS(=O)(=O)c2cccc(NCc3ccco3)n2)C(C)(C)C1` (stereo not drawn) [Compound 2597, N—[[6-(2-furylmethylamino)-2-pyridyl]sulfonyl]-2-(2,2,4-trimethylpyrrolidin-1-yl)pyridine-3-carboxamide], the EC30 is 3000 to 10000 nM.

Still in this assay, the particulars now being: Table 3; compounds of Table 1 as modulators of CFTR activity; protocol not stated.
Consider `Cc1cc(C)c(Oc2nc(C(C)(C)C)ccc2C(=O)NS(=O)(=O)c2cccc(N(C)C)c2)c(C)c1` [Compound 311, 6-tert-butyl-N-[3-(dimethylamino)phenyl]sulfonyl-2-(2,4,6-trimethylphenoxy)pyridine-3-carboxamide], for which the EC30 result was “+++ (“+++” means <3 uM)”. As for `CC(C)Oc1ccc(-c2ccc(C(=O)NS(=O)(=O)c3cccc(N)n3)c(N3CCC4(CCO4)CC3)n2)cn1` [Compound 729, N-[(6-amino-2-pyridyl)sulfonyl]-6-(6-isopropoxy-3-pyridyl)-2-(3-oxa-7-azaspiro[3.5]nonan-7-yl)pyridine-3-carboxamide], the EC30 entry is “++ (“++” means between 3 uM and 10 uM)”.

As to `CC(C)(C)c1ccc(C(=O)NS(=O)(=O)c2cccc(N)c2)c(-c2ccccc2)n1` [Compound 542, N-(3-aminophenyl)sulfonyl-6-tert-butyl-2-phenyl-pyridine-3-carboxamide], the EC30 result is reported as “+++ (“+++” means <3 uM)”. Still for that read-out and setting: the value for `Cc1cc(C)c(Cn2c(C(=O)NS(=O)(=O)c3ccncc3)cc3cc(Cl)ccc32)c(C)c1` [Compound 65, 5-chloro-N-(4-pyridylsulfonyl)-1-[(2,4,6-trimethylphenyl)methyl]indole-2-carboxamide] was “++ (“++” means between 3 uM and 10 uM)”. On the same count and under the same terms, the value for `Cc1cc(C)c(Oc2nn(C(C)(C)C)cc2C(=O)NS(=O)(=O)c2cccc(N)c2)c(C)c1` [Compound 325, N-(3-aminophenyl)sulfonyl-1-tert-butyl-3-(2,4,6-trimethylphenoxy)pyrazole-4-carboxamide] was “+++ (“+++” means <3 uM)”.

For the compound `Cc1cc(C)c(Cn2nc(C(C)(C)C)cc2C(=O)NS(=O)(=O)c2cccc(O)c2)c(C)c1` [Compound 84, 5-tert-butyl-N-(3-hydroxyphenyl)sulfonyl-2-[(2,4,6-trimethylphenyl)methyl]pyrazole-3-carboxamide], the EC30 entry is given as “+++ (“+++” means <3 uM)”. In the case of `COCC1CCCN(c2nc(-c3cc(F)cc(OCC(C)C)c3)ccc2C(=O)NS(=O)(=O)c2cccc(N)n2)C1` (stereo not drawn) [Compound 419, N-[(6-amino-2-pyridyl)sulfonyl]-6-(3-fluoro-5-isobutoxy-phenyl)-2-[3-(methoxymethyl)-1-piperidyl]pyridine-3-carboxamide], the EC30 result is “+++ (“+++” means <3 uM)”. Still for that read-out and setting: the value for `Cc1cc(C)c(Oc2nc(C(C)(C)C)ccc2C(=O)NS(=O)(=O)c2cccc3[nH]ccc23)c(C)c1` [Compound 275, 6-tert-butyl-N-(1H-indol-4-ylsulfonyl)-2-(2,4,6-trimethylphenoxy)pyridine-3-carboxamide] was “+++ (“+++” means <3 uM)”; that for `Cc1cc(C)c(Cn2c(C(=O)NS(=O)(=O)c3cccc(N)n3)cc3cc(C(C)C)ccc32)c(C)c1` [Compound 404, N-[(6-amino-2-pyridyl)sulfonyl]-5-isopropyl-1-[(2,4,6-trimethylphenyl)methyl]indole-2-carboxamide] was “+++ (“+++” means <3 uM)”; that for `Cc1cc(C)c(Oc2nc(-c3ccc(OCC(C)C)cc3)ccc2C(=O)NS(=O)(=O)c2cccc(N)n2)c(C)c1` [Compound 320, N-[(6-amino-2-pyridyl)sulfonyl]-6-(4-isobutoxyphenyl)-2-(2,4,6-trimethylphenoxy)pyridine-3-carboxamide] was “+++ (“+++” means <3 uM)”. As for `CC1(C)CCCc2cc(C(=O)NS(=O)(=O)c3cccc(N)c3)c(-c3ccccc3)nc21` [Compound 685, N-(3-aminophenyl)sulfonyl-8,8-dimethyl-2-phenyl-6,7-dihydro-5H-quinoline-3-carboxamide], the EC30 entry is recorded as “+++ (“+++” means <3 uM)”.

`Cc1cc(C)c(CN2Cc3ccccc3C2C(=O)NS(=O)(=O)c2cccc(N)c2)c(C)c1` (stereo not drawn) [Compound 90, N-(3-aminophenyl)sulfonyl-2-[(2,4,6-trimethylphenyl)methyl]isoindoline-1-carboxamide]: the EC30 result is “+++ (“+++” means <3 uM)”. Regarding `CC(C)Oc1ccc(-c2ccc(C(=O)NS(=O)(=O)c3ccc[nH]c3=O)c(N3[C@H](C)CC[C@@H]3C)n2)cn1` [Compound 770, 2-[(2S,5R)-2,5-dimethylpyrrolidin-1-yl]-6-(6-isopropoxy-3-pyridyl)-N-[(2-oxo-1H-pyridin-3-yl)sulfonyl]pyridine-3-carboxamide], the EC30 entry was “++ (“++” means between 3 uM and 10 uM)”. On the same count and under the same terms, the value for `Cc1cc(C)c(Oc2nc(C(C)(C)C)ccc2C(=O)NS(=N)(=O)c2cccc(N)c2)c(C)c1` (stereo not drawn) [Compound 292, N-[(3-Aminophenyl)sulfonimidoyl]-6-tert-butyl-2-(2,4,6-trimethylphenoxy)pyridine-3-carboxamide] was “+++ (“+++” means <3 uM)”.

For the compound `Cc1ccccc1CN1Cc2ccccc2C1(C)C(=O)NS(=O)(=O)c1cccc(N)n1` (stereo not drawn) [Compound 666, N-[(6-amino-2-pyridyl)sulfonyl]-1-methyl-2-(o-tolylmethyl)isoindoline-1-carboxamide], the EC30 result was “++ (“++” means between 3 uM and 10 uM)”.
